{"source": "patent US10717781B2", "about": "“Neuroinvasion inhibitor” (National Cancer Center, priority 2008, dated 2020)", "key": {"[1]": {"system": "human pancreatic cancer Capan-1 cell line", "assay": "Western blotting of intracellular signaling (pSTAT3, pErk1/2, pAkt)", "type": "cell-based", "procedure": "Western blotting was carried out using the following primary antibodies: anti-phosphorylated STAT3 antibody (Santa Cruz), anti-STAT3 antibody (Santa Cruz), anti-phosphorylated Erk1/2 antibody (Cell Signaling), anti-Erk1/2 antibody (Cell Signaling), anti-phosphorylated Akt antibody (Cell Signaling), anti-Akt antibody (Cell Signaling), and anti-actin antibody (Santa Cruz). Fluorescent immunostaining was carried out using the following primary antibodies: anti-S100 antibody (DAKO) and anti-mouse IL-6 antibody (Santa Cruz). Nuclear staining was performed using DRAQ5 (AXXORA). Immunostaining was performed using an anti-phosphorylated STAT3 antibody (Santa Cruz).\nCell lysates were prepared using a lysate buffer (20 mM Hepes-NaOH (pH 7.0), 0.5% NP-40, 15% Glycerol, 300 mM NaCl, 1 mM EDTA, 10 mM NaF). The protein concentration was determined using a BCA Protein Assay Kit (PIERCE). Then, cell lysates containing […] of protein were electrophoresed in 7.5% or 12% acrylamide gels. The proteins were transferred onto a polyvinylidene difluoride membrane (Millipore). An antibody was added to the membrane, and the protein expression was visualized using Enhanced Chemiluminescence Reagent (Amersham Biosciences).\nUsing human recombinant IL-6 (rhIL6), the effect of IL-6 on intracellular signaling of the human pancreatic cancer Capan-1 cell line was assessed by Western blotting for phosphorylated STAT3 (pSTAT3) (FIG. 3A), phosphorylated Erk1/2 (pErk1/2) (FIG. 3B), and phosphorylated Akt (pAkt) (FIG. 3C). […] In contrast, IL-6 had no effect on the expression of phosphorylated Akt."}, "[2]": {"system": "human pancreatic cancer cell lines", "assay": "wound healing assay (migratory activity)", "type": "cell-based", "conditions": "hrIL6 0, 1, 10, 100 ng/ml, 24 hours (FIG. 2D)", "procedure": "(§1) Capan-1 and BxPC-3, which are human pancreatic cancer cell lines, were purchased from the American Type Culture Collection (ATCC). According to the manual recommended by ATCC, the cells were cultured and passaged using an incubator capable of maintaining a temperature of 37° C. under 5% CO2.\n1 ml of a cell suspension (3×10^5 cells/ml) was added to each of 24 wells, and incubated for 24 hours. Then, the medium was replaced with serum-free medium. After 24 hours of incubation, a strip-shaped cell-free area was produced by scraping the central area of the well with a glass rod. After measuring the width of the strip, the medium was replaced with an hrIL6 vehicle at 0, 1, 10, or 100 ng/ml. After 24 hours of incubation, changes in the width of the cell-free area were determined. This assay was carried out twelve times for each group. The determined values were divided by the average width change at 0 ng/ml hrIL6. The resulting normalized values were recorded.\n(§2) Using human recombinant IL-6, the effects of IL-6 on growth activity, chemotactic activity, and migratory activity of the human pancreatic cancer cell lines were assessed by monitoring the cell count over time (FIGS. 2A and 2B), by chemotaxis assay (FIG. 2C), and by wound healing assay (FIG. 2D)."}, "[3]": {"system": "human pancreatic cancer cell lines", "assay": "chemotaxis assay", "type": "cell-based", "conditions": "hrIL6 0, 1, 10, 100 ng/ml, 24 hours (FIG. 2C)", "procedure": "as §1\nCell culture inserts (BD Falcon) having 8-μm pores in the bottom surface were inserted into 24 wells. The cell culture inserts and wells were used as upper and lower chambers, respectively. Human recombinant IL-6 (hrIL6) vehicles were prepared at 0, 1, 10, and 100 ng/ml using hrIL6 (R&D systems) and serum-free culture medium. 600 μl of the hrIL6 vehicles was added to the lower chambers. 100 μl of a cell suspension (2×10^6 cells/ml) was added to the upper chambers. After 24 hours of incubation, cells that passed through the pores were counted. This assay was carried out twelve times for each group. The cell count was divided by the average number of cells that passed through the pores at 0 ng/ml hrIL6. The resulting normalized values were recorded.\nas §2"}, "[4]": {"system": "human pancreatic cancer cell lines", "assay": "cell growth activity by monitoring the cell count over time", "type": "cell-based", "conditions": "cell count over time (FIGS. 2A and 2B)", "procedure": "as §1\nCells were harvested from dishes, and viable cells were counted using trypan blue and a hemocytometer.\nas §2"}, "[5]": {"system": "neural invasion of human pancreatic cancer cells in mouse sciatic nerve", "assay": "administration of inhibitors to neural invasion model mice", "type": "in vivo", "procedure": "Six-week-old male mice with severe combined immune deficiency (SCID) were used. The mice were anesthetized by administering barbital at 50 mg/kg into their peritoneal cavities. After exposing the left sciatic nerves, 2.5 μl of a suspension of cancer cells (1.0×10^4 cells/μl) was injected directly into the sciatic nerves using a microsyringe and 30-gauge needle. Upon assessment, the sciatic nerves into which cancer cells were injected were isolated. When tissue samples were prepared, the nerves were allowed to stand in 4% paraformaldehyde at 4° C. for one whole day and night to fix them. The fixed sciatic nerves were sliced into 3-μm sections, and then immunostained or hematoxylin/eosin-stained to measure the distance of neural invasion. Using an objective micrometer (Sankei Co.), the longitudinal length of the whole tumor was measured in the longitudinally sliced thin sections of the nerves to determine the distance of neural invasion. Tissue mRNA was extracted from tissue samples prepared by crushing with a Multi-Beads Shocker (Yasui Kikai Co.) immediately after harvesting the tissues.\nThe distance of neural invasion is an important factor in the mode of invasion of pancreatic cancer. […]\nThe analysis software used was STATVIEW 5.0. The difference between average values was evaluated by two-sided Student-t test. […]"}, "[6]": {"system": "pancreatic cancer", "conditions": "pancreatic cancer patients, foreign phase III clinical trial data, cited from earlier work"}}, "note": "Where a name gives a salt, the structure may show the parent alone.", "data": [{"compound": "IL-6: Human recombinant IL-6 (R&D systems), cytokine added to pancreatic cancer cell lines", "values": [{"measurement": "expression of phosphorylated Akt", "setting": "[1]; Capan-1 (FIG. 3C)", "value": "no effect"}, {"measurement": "intracellular expression level of phosphorylated STAT3 protein", "setting": "[1]; Capan-1, 15 minutes after addition of rhIL6 (FIG. 3A)", "value": "clearly elevated"}, {"measurement": "intracellular expression level of phosphorylated Erk1/2 proteins", "setting": "[1]; Capan-1, one hour after addition of rhIL6 (FIG. 3B)", "value": "clearly elevated"}, {"measurement": "effect on migratory activity", "setting": "[2]", "value": "enhances"}, {"measurement": "effect on chemotactic activity", "setting": "[3]", "value": "enhances"}, {"measurement": "effect on cell growth", "setting": "[4]", "value": "no effect"}]}, {"compound": "N#C/C(=C/c1ccc(O)c(O)c1)C(=O)NCc1ccccc1", "note": "[AG490]", "values": [{"measurement": "neural invasion (invasion distance)", "setting": "[5]; 0.5 mg intraperitoneally every day for 12 days from two days after injection of cancer cells, assessed at two weeks, vs 1% DMSO (FIG. 9A)", "value": "suppression of neural invasion"}]}, {"compound": "Nc1ccn([C@@H]2O[C@H](CO)[C@@H](O)C2(F)F)c(=O)n1", "note": "[gemcitabine hydrochloride]", "values": [{"measurement": "efficacy rate of palliative effects", "setting": "[6]; first drug of choice", "value": 23.8, "unit": "%"}, {"measurement": "median survival time", "setting": "[6]", "value": 5.7, "unit": "months"}, {"measurement": "one-year survival rate", "setting": "[6]", "value": 18, "unit": "%"}]}, {"compound": "anti-human IL-6 receptor antibody: anti-IL-6 receptor antibody (tocilizumab; Chugai Pharmaceutical Co.), which inhibits the human IL-6 receptor; humanized PM-1 antibody", "values": [{"measurement": "neural invasion (invasion distance)", "setting": "[5]; 5 μg/g twice a week for two weeks from one week after injection of cancer cells, assessed at three weeks, vs human IgG (FIG. 9B)", "value": "suppression of neural invasion"}]}]}
